Measurements published in US20240342292A1, “Compounds for the Degradation of EGFR Kinase” (BeiGene Switzerland GmbH, priority 2021, published 2024).
Like-named read-outs stand apart in the source and are kept apart here.

Experiments:
[1] = amide bond, 15-membered ring
[2] = tested on: Del19/T790M/C797S EGFR; assay: EGFR degradation HTRF assay in H1975-clone #28 (DTC) cells; type: cell-based; settings: H1975 # 28 DTC (Del19/T790M/C797S), 16h treatment; for DC50: HTRF; for Dmax (%): maximum percentage of degradation
Procedure, shortened: (§1)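 Cells carrying only lentiviral mutant EGFR, since endogenous alleles were removed by CRISPR, received compounds on day 2 for 16 h. Final concentrations ran from 10 uM down in 5-fold steps over 8 doses. After lysis, EGFR levels were quantified by HTRF and DC50 derived by curve fitting.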

[3] = molecular target: T1, L858R/T790M/C797S EGFR (Homo sapiens, UniProt P00533, C797S/L858R/T790M); assay: EGFR degradation HTRF assay in H1975-clone #25 (LTC) cells; type: cell-based; settings: 16h treatment; for DC50: H1975 # 25-LTC (L858R/T790M/C797S), HTRF; for Dmax: NCI-H1975, H1975 # 25-LTC (L858R/T790M/C797S), maximum percentage of degradation
T1 construct: expressed in transfected cells; host or cells: H1975 clone #25 (lentiviral over-expression, endogenous EGFR knocked out by sgRNA)
Procedure, shortened: as §1

[4] = tested on: Del19/C797S EGFR; assay: EGFR degradation HTRF assay in H1975-clone #23 (DC) cells; type: cell-based; settings: H1975 #23 DC (Del19/C797S), 16h treatment; for DC50: HTRF; for Dmax (%): maximum percentage of degradation
Excerpt: (§2) H1975-clone #28(Del19/T790M/C797S, or abbr: DTC), H1975-clone #23(Del19/C797S, or abbr: DC), H1975-clone #25(L858R/T790M/C797S, or abbr: LTC) and H1975-clone #8 (L858R/C797S, or abbr: LC). EGFR-Del19:T790M/C797S, EGFR-Del19/C797S, EGFR-L858R/T790M/C797S and EGFR-L858R/C797S were stably expressed in H1975 cell lines by lentivirus-mediated over-expression, respectively. The EGFR over-expressed cells then underwent knockout, in which the EGFR targeting sgRNA was designed to only target the endogenous EGFR copies and preserve the exogenous EGFR copies. Followed by the knockout, the edited H1975 cells were seeded in 96 well plates at the concentration of […], cultured for about 2 weeks to allow single clones formation. The formed clones were screened by DNA sequencing and whole exon sequencing analysis for the desired edition. H1975-clone #28, H1975-clone #23, H1975-clone #25 and H1975-clone #8 were finally confirmed as homozygous Del19/T790M/C797S EGFR, Dell9/C797S EGFR, L858R/T790M/C797S EGFR and L858R/C797S EGFR clones, respectively.
(§3) H1975-#25, H1975-#28, H1975-#23 and H1975-#8 cells are treated with compounds diluted in 0.2% DMSO cell culture medium on day 2, incubate for 16h, 37° C., 5% CO2. the final concentration of compounds in all assay is start with 10 uM, 5-fold dilution, total 8 doses were included.
(§4) After 16h treatment, add HTRF lysis buffer to each well; seal the plate and incubate 1 hour at room temperature on a plate shaker; Once the cells are lysed, 16 μL of cell lysate are transferred to a PE 384-well HTRF detection plate; 4 μL of pre-mixed HTRF antibodies are added to each well; Cover the plate with a plate sealer, spin 1000 rpm for 1 min, Incubate overnight at room temperature; Read on BMG PheraStar with HTRF protocol (337 nm-665 nm-620 nm).
(§5) The IC50 (DC50) value of a compound can be obtained by fitting the following equation
(§6) Y=Bottom+(TOP−Bottom)/(1+((IC50/X)^hillslope))
(§7) Wherein, X and Y are known values, and IC50, Hillslope, Top and Bottom are the parameters obtained by fitting with software. Y is the inhibition percentage (calculated from the equation), X is the concentration of the compound: IC50 is the concentration of the compound when the 50% inhibition is reached. The smaller the IC50 value is, the stronger the inhibitory ability of the compound is. Vice versa, the higher the IC50 value is, the weaker the ability the inhibitory ability of the compound is: Hillslope represents the slope of the fitted curve, generally around 1*; Bottom represents the minimum value of the curve obtained by data fitting, which is generally 0%±20%; Top represents the maximum value of the curve obtained by data fitting, which is generally 100%±20%. The experimental data were fitted by calculating and analyzing with Dotmatics data analysis software.

[5] = molecular target: T2, L858R/C797S EGFR (Homo sapiens, UniProt P00533, C797S/L858R); assay: EGFR degradation HTRF assay in H1975-clone #8 (LC) cells; type: cell-based; settings: H1975 #8 LC (L858R/C797S), 16h treatment; for DC50: HTRF; for Dmax: NCI-H1975, maximum percentage of degradation
T2 construct: expressed in transfected cells; host or cells: H1975 clone #8 (lentiviral over-expression, endogenous EGFR knocked out by sgRNA)
Excerpt: as §2, §3, §4, §5, §6, §7

T2 sequence (P00533 25-1210 C797S/L858R): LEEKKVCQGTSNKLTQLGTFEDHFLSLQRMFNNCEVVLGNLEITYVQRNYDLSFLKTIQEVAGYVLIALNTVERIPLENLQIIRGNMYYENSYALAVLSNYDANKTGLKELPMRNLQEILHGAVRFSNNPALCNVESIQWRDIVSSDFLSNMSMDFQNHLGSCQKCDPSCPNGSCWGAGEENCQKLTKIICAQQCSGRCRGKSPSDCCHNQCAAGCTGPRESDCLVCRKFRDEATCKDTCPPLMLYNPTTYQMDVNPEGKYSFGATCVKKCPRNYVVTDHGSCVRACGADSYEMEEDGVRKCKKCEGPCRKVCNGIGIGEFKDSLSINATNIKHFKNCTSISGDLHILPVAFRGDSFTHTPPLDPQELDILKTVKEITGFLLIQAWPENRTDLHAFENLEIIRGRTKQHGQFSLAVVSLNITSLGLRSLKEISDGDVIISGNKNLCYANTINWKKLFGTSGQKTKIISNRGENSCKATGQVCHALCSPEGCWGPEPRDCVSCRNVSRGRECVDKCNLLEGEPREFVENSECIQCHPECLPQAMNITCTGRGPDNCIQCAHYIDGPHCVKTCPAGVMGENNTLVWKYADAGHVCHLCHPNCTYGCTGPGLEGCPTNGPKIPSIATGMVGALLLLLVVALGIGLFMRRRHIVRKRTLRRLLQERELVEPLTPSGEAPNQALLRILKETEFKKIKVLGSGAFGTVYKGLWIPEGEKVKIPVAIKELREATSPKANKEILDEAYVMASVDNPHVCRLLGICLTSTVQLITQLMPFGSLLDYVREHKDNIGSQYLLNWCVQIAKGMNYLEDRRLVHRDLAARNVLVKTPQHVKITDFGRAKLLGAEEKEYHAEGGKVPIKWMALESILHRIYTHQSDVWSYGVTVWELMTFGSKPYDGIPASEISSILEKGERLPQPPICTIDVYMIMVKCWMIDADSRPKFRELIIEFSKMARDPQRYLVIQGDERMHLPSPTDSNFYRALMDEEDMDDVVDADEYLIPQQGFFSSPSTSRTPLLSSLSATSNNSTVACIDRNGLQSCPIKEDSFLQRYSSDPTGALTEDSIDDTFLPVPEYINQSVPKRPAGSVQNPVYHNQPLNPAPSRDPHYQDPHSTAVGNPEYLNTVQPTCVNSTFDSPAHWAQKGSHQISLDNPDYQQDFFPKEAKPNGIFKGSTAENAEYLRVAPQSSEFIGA
T1 sequence (P00533 25-1210 T790M/C797S/L858R): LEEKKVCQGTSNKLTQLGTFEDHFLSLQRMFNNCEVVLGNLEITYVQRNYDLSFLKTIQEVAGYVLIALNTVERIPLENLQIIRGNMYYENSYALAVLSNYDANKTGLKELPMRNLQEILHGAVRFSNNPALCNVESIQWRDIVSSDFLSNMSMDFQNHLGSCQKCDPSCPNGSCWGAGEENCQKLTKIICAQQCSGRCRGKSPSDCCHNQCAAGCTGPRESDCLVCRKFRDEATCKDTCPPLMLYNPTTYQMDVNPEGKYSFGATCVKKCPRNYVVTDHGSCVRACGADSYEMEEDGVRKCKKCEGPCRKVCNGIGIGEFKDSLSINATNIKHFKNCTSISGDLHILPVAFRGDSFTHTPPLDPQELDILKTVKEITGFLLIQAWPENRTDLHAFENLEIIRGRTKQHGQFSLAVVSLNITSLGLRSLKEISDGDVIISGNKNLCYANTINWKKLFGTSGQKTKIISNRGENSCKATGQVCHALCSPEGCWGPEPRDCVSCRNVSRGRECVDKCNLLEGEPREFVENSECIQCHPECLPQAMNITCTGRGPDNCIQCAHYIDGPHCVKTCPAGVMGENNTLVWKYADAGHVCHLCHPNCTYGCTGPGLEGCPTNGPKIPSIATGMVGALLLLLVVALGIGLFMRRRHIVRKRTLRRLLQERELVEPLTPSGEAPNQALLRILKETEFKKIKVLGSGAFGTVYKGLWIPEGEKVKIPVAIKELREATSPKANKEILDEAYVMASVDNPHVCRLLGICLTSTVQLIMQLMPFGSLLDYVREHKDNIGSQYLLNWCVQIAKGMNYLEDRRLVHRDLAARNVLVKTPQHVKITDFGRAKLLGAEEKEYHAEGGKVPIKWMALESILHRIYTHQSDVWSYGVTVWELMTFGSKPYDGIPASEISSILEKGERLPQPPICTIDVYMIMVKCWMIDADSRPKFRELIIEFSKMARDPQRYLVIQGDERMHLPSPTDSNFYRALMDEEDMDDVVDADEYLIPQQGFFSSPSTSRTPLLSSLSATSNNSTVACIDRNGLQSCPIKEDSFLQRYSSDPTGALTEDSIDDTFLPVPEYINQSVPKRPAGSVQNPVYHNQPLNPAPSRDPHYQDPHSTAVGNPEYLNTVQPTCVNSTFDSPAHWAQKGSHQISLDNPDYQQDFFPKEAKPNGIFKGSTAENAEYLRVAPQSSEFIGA

DC50 [2] [nM] | DC50 [3] [nM] | Dmax [3] [%] | DC50 [4] [nM] | Compound | Dmax (%) [2] [%] | Dmax (%) [4] [%] | other results
 |  |  |  | COC(=O)c1cc(C)nc(-c2cnn(C)c2OCCC[C@@H](C)Cn2c(N)nc3ccc(N4CCC5(CC4=O)OCCO5)cc32)c1 |  |  | ring closure, isolated yield ([1]; the molecule shown is the open-chain precursor, LiHMDS, DMF/THF, 32.0 mM, 0.0 °C): 54.5%
 |  |  |  | COC(=O)c1cc(C)nc(-c2cnn(C)c2OCC[C@H]2C[C@@H]2Cn2c(=N)[nH]c3ccc(Br)cc32)c1 |  |  | ring closure, isolated yield ([1]; the molecule shown is the open-chain precursor, LiHMDS, DMF/THF, 56.7 mM, 25.0 °C): 49.6%
 |  |  |  | Cc1cc2cc(n1)-c1cnn(C)c1OCCC[C@@H](C)Cn1c(nc3ccc(Br)cc31)NC2=O |  |  | ring closure, isolated yield ([1]; from Cc1cc(C(=O)O)cc(-c2cnn(C)c2OCCC[C@@H](C)Cn2c(N)nc3ccc(Br)cc32)n1, TBTU/TEA, DCM, 117.0 mM, 20.0 °C): 82%
1.5 | 2 | 83 | 0.6 | Cc1cc2cc(n1)-c1cnn(C)c1OCCC[C@@H](C)CN1/C(=N/C2=O)Nc2ccc(CN3CCN(C(=O)[C@@H]4CCN(c5cc(F)c([C@H]6CCC(=O)NC6=O)c(F)c5)C4)CC3)cc21 [Example 5, (R)-3-(2,6-difluoro-4-((R)-3-(4-(((R,E)-1^1,2^6,7-trimethyl-3-oxo-5^2,5^3-dihydro-1^1H,5^1H-11-oxa-4-aza-5(2,1)-benzo[d]imidazola-2(2,4)-pyridina-1(4,5)-pyrazolacycloundecaphane-5^6-yl)methyl)piperazine-1-carbonyl)pyrrolidin-1-yl)phenyl)piperidine-2,6-dione] | 72.0 | 67.6 | 
0.8 | 1.1 | 89.9 | 1.7 | Cc1cc2cc(n1)-c1cnn(C)c1OCCC[C@@H](C)CN1/C(=N/C2=O)Nc2ccc(CN3CCC(N4CCN(C(=O)[C@@H]5CCN(c6cc(F)c([C@H]7CCC(=O)NC7=O)c(F)c6)C5)CC4)CC3)cc21 [Example 6, (R)-3-(2,6-difluoro-4-((R)-3-(4-(1-(((R,E)-1^1,2^6,7-trimethyl-3-oxo-5^2,5^3-dihydro-1^1H,5^1H-11-oxa-4-aza-5(2,1)-benzo[d]imidazola-2(2,4)-pyridina-1(4,5)-pyrazolacycloundecaphane-5^6-yl)methyl)piperidin-4-yl)piperazine-1-carbonyl)pyrrolidin-1-yl)phenyl)piperidine-2,6-dione] | 85.7 | 78.2 | DC50 [5]: 3 nM; Dmax [5]: 63.1%
1.7 | 0.8 | 90.1 | 1 | Cc1cc2cc(n1)-c1cnn(C)c1OCCC[C@@H](C)CN1/C(=N/C2=O)Nc2ccc(CN3CCC4(CC3)CCN(C(=O)[C@@H]3CCN(c5cc(F)c([C@H]6CCC(=O)NC6=O)c(F)c5)C3)CC4)cc21 [Example 9, (R)-3-(2,6-difluoro-4-((R)-3-(9-(((R,E)-1^1,2^6,7-trimethyl-3-oxo-5^2,5^3-dihydro-1^1H,5^1H-11-oxa-4-aza-5(2,1)-benzo[d]imidazola-2(2,4)-pyridina-1(4,5)-pyrazolacycloundecaphane-5^6-yl)methyl)-3,9-diazaspiro[5.5]undecane-3-carbonyl)pyrrolidin-1-yl)phenyl)piperidine-2,6-dione] | 76.4 | 82.6 | DC50 [5]: 3.2 nM; Dmax [5]: 64.6%
 |  |  |  | tert-butyl (R,E)-3-oxo-4-(1^1,2^6,7-trimethyl-3-oxo-5^2,5^3-dihydro-1^1H,5^1H-11-oxa-4-aza-5(2,1)-benzo[d]imidazola-2(2,4)-pyridina-1(4,5)-pyrazolacycloundecaphane-5′-yl)piperazine-1-carboxylate |  |  | ring closure, isolated yield ([1]; HATU/DIEA, DCM, 155.0 mM, 25.0 °C): 51.4%
